# Marks after values point to notes of the source that are not given here.
# What was measured:
# Format in all cases: in vivo
# [1] = system: Phakopsora pachyrhizi; assay: Test A: test suspension sprayed on soybean seedlings, inoculated next day with Phakopsora pachyrhizi (Asian soybean rust), visual disease rating; details: for Test A rating (% disease control): Rate 10 ppm test suspension, relative to the controls
# Description: General protocol for preparing test suspensions for Tests A-C: the test compounds were first dissolved in acetone in an amount equal to 3% of the final volume and then suspended at the desired concentration (in ppm) in acetone and purified water (50/50 mix by volume) containing 250 ppm of the surfactant PEG400 (polyhydric alcohol esters). The resulting test suspensions were then used in Tests A-C. The test suspension was sprayed to the point of run-off on soybean seedlings. The following day the seedlings were inoculated with a spore suspension of Phakopsora pachyrhizi (the causal agent of Asian soybean rust) and incubated in a saturated atmosphere at 22° C., for 24 h and then moved to a growth chamber at 22° C., for 8 days, after which time visual disease ratings were made. […] A dash (-) indicates the compound was not tested. The test suspensions were sprayed at the concentration listed in the column “Rate in ppm”, unless otherwise indicated.
# [2] = system: Zymoseptoria tritici; assay: Test B: test suspension sprayed on wheat seedlings, inoculated next day with Zymoseptoria tritici (wheat leaf blotch), visual disease rating; details: for Test B rating (% disease control): relative to the controls
# Description: General protocol for preparing test suspensions for Tests A-C: the test compounds were first dissolved in acetone in an amount equal to 3% of the final volume and then suspended at the desired concentration (in ppm) in acetone and purified water (50/50 mix by volume) containing 250 ppm of the surfactant PEG400 (polyhydric alcohol esters). The resulting test suspensions were then used in Tests A-C.
# The test suspension was sprayed to the point of run-off on wheat seedlings. The following day the seedlings were inoculated with a spore suspension of Zymoseptoria tritici (the causal agent of wheat leaf blotch) and incubated in a saturated atmosphere at 24° C., for 48 h, and then moved to a growth chamber at 20° C., for 17 days, after which time visual disease ratings were made.
# Results for Tests A-C are given in Table A. In the Table, a rating of 100 indicates 100% disease control and a rating of 0 indicates no disease control (relative to the controls). A dash (-) indicates the compound was not tested. The test suspensions were sprayed at the concentration listed in the column “Rate in ppm”, unless otherwise indicated. An asterisk “*” next to the rating indicates a 250 ppm test suspension was used, a double asterisk “**” next to the rating indicates a 100 ppm test suspension was used, and a triple asterisk “***” next to the rating indicates a 50 ppm test suspension was used.
# [3] = system: Puccinia recondita f. sp. tritici; assay: Test C: test suspension sprayed on wheat seedlings, inoculated next day with Puccinia recondita f. sp. tritici (wheat leaf rust), visual disease rating; details: for Test C rating (% disease control): Rate 10 ppm test suspension, relative to the controls
# Description: General protocol for preparing test suspensions for Tests A-C: the test compounds were first dissolved in acetone in an amount equal to 3% of the final volume and then suspended at the desired concentration (in ppm) in acetone and purified water (50/50 mix by volume) containing 250 ppm of the surfactant PEG400 (polyhydric alcohol esters). The resulting test suspensions were then used in Tests A-C. The test suspension was sprayed to the point of run-off on wheat seedlings. The following day the seedlings were inoculated with a spore suspension of Puccinia recondita f. sp. tritici; (the causal agent of wheat leaf rust) and incubated in a saturated atmosphere at 20° C., for 24 h, and then moved to a growth chamber at 20° C., for 6 days, after which time visual disease ratings were made. […] A dash (-) indicates the compound was not tested. The test suspensions were sprayed at the concentration listed in the column “Rate in ppm”, unless otherwise indicated.
# [4] = 100 ppm test suspension (double asterisk **)
SMILES,Test A disease control rating ([1]; 10 ppm test suspension) [%],Test C disease control rating ([3]; 10 ppm test suspension) [%],Test B disease control rating ([2]; 250 ppm test suspension),Test A rating (% disease control) [1] [%],Test B rating (% disease control) ([2]; 250 ppm test suspension),Test C rating (% disease control) [3] [%],also measured
N#CCOC(=O)c1cnn(Cc2ccc(-c3noc(C(F)(F)F)n3)cc2)c1 [compound 57],100,100,–,–,–,–,"Test B disease control rating [2, 4]: 99** %"
CCCOC(=O)c1cnn(Cc2ccc(-c3noc(C(F)(F)F)n3)s2)c1 [compound 198],100,99,–,–,–,–,"Test B disease control rating [2, 4]: 94** %"
O=C(NCC(F)F)c1coc(Cc2ccc(-c3noc(C(F)(F)F)n3)cc2)n1 [compound 225],100,100,99* %,–,–,–,–
N#CCCNC(=O)c1coc(Cc2ccc(-c3noc(C(F)(F)F)n3)cc2)n1 [compound 229],100,100,94* %,–,–,–,–
COCCNC(=O)c1coc(Cc2ccc(-c3noc(C(F)(F)F)n3)cc2)n1 [compound 257],100,100,99* %,–,–,–,–
O=C(NCCn1cccn1)c1coc(Cc2ccc(-c3noc(C(F)(F)F)n3)cc2)n1 [compound 264],100,99,99* %,–,–,–,–
CCOC(=O)c1cnn(Cc2ccc(-c3noc(C(F)(F)F)n3)cc2)c1 [compound 276],–,–,35* %,–,–,–,Test A disease control rating ([1]; 50 ppm test suspension): 100%; Test C disease control rating ([3]; 50 ppm test suspension): 80%
O=C(NCC(F)(F)F)c1coc(Cc2ccc(-c3noc(C(F)(F)F)n3)cc2)n1 [compound 316],100,100,5* %,–,–,–,–
O=C(NCCC(F)(F)F)c1coc(Cc2ccc(-c3noc(C(F)(F)F)n3)cc2)n1 [compound 330],100,100,96* %,–,–,–,–
CCOC(=O)c1cnn(COc2ccc(-c3noc(C(F)(F)F)n3)cc2)c1 [compound 376],100,68,49* %,–,–,–,–
N#CCNC(=O)c1csc(Cc2ccc(-c3noc(C(F)(F)F)n3)cc2)n1 [compound 393],–,–,–,100,94* %,100,–
COCCNC(=O)c1csc(Cc2ccc(-c3noc(C(F)(F)F)n3)cc2)n1 [compound 394],–,–,–,100,99* %,100,–
O=C(NC1CCC(F)(F)CC1)c1coc(Cc2ccc(-c3noc(C(F)(F)F)n3)cc2)n1 [compound 395],–,–,–,95,0* %,97,–
O=C(NCCn1cccn1)c1csc(Cc2ccc(-c3noc(C(F)(F)F)n3)cc2)n1 [compound 396],–,–,–,100,28* %,100,–
O=C(NCCC(F)(F)F)c1csc(Cc2ccc(-c3noc(C(F)(F)F)n3)cc2)n1 [compound 397],–,–,–,100,82* %,98,–
O=C(NCCCC(F)(F)F)c1coc(Cc2ccc(-c3noc(C(F)(F)F)n3)cc2)n1 [compound 398],–,–,–,100,80* %,97,–
O=C(NCC=C(Cl)Cl)c1coc(Cc2ccc(-c3noc(C(F)(F)F)n3)cc2)n1 [compound 399],–,–,–,100,10* %,99,–
O=C(NCCF)c1coc(Cc2ccc(-c3noc(C(F)(F)F)n3)cc2)n1 [compound 400],–,–,–,100,99* %,100,–

# Reference: US12606548B2, “Fungicidal oxadiazoles” (FMC CORPORATION, priority 2019, dated 2026)
